The assay deals with human HPK1 (MAP4K1) (Homo sapiens (Human), UniProt Q92918). In words: HPK1 IC50 Assay (TR-FRET biochemical kinase assay, STK S1 peptide substrate). As to conditions: recombinant human HPK1 kinase domain 0.15 nM, 10 μM ATP, 1 μM STK S1 peptide. In a few lines:
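Pre-activated recombinant kinase domain (insect cells; 0.15 nM) pre-incubated with compounds for 15 min, then 10 μM ATP and 1 μM STK S1 peptide added for 3 h at 25 °C in BES pH 7.0. Phosphorylation read by HTRF (665/620 nm). IC50 from four-parameter fits normalized to staurosporine/DMSO controls, geometric mean of repeats.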
Background: TR-FRET usually uses a lanthanide donor and a delayed reading to cut background.

Setting [1] is: geometric mean of multiple experiments.

human HPK1 (MAP4K1), sequence (Q92918 17-274): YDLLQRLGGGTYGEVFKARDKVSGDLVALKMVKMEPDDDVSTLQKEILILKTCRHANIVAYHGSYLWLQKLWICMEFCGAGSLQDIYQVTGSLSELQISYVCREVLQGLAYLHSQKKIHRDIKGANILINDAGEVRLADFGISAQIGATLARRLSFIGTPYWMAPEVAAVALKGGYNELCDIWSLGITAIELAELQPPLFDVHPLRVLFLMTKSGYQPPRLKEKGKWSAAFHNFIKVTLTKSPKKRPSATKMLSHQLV

For `CC(C)n1cnc2cc(-c3ccc4c(c3)N([C@H]3C[C@@H](N5CCCCC5)C3)C(=O)C43CCN(C(=O)C4(C)CCO4)CC3)nc(Nc3ccncc3F)c21` (some centres unmarked) [Example 11], under setting [1], the half-maximal inhibitory concentration (IC50) (commonly the concentration needed to halve the response being measured) came to 0.2 nM.

`COC1(C(=O)N2CCC3(CC2)C(=O)N([C@H]2C[C@@H](N4CCCCC4)C2)c2cc(-c4cc5ncn(C(C)C)c5c(Nc5ccncc5F)n4)ccc23)CC1` [Example 146]: for the setting “geometric mean”, the half-inhibitory concentration (IC50) stood at 0.3 nM.

Take `CC(C)n1cnc2cc(-c3ccc4c(c3)N([C@H]3C[C@@H](N5CCCCC5)C3)C(=O)C43CCN(C(=O)C45CC(F)(C4)C5)CC3)nc(Nc3ccncc3F)c21` [Example 28]: the IC50 under setting [1] worked out at 0.1 nM.

Take `CC(=O)N1CCC2(CC1)C(=O)N([C@H]1C[C@@H](N3C4CCCC3CC4)C1)c1cc(-c3cc4ncn(C(C)C)c4c(Nc4ccncc4F)n3)ccc12` [Example 186]: the 50% inhibitory concentration (IC50) (geometric mean) stood at 0.3 nM.

Take `CC(=O)N1CCC2(CC1)C(=O)N([C@H]1C[C@@H](N3CCCCC3)C1)c1cc(-c3cc4ncn(C(C)C)c4c(Nc4cc(C(=O)NC(C)C)ncc4F)n3)ccc12` [Example 74]: the IC50 under setting [1] was found to be 6.6 nM.

Turning to `CC(C)n1cnc2cc(-c3ccc4c(c3)N([C@H]3C[C@@H](N5CCCC6(CC6)C5)C3)C(=O)C43CCN(C(=O)[C@@H](C)O)CC3)nc(Nc3ccncc3F)c21` [Example 36], under setting [1], the half-inhibitory concentration (IC50) was 0.3 nM.

As for `CC(C)n1cnc2cc(-c3ccc4c(c3)N([C@H]3C[C@@H](N5CCCC6(CC6)C5)C3)C(=O)C43CCN(C(=O)CO)CC3)nc(Nc3ccncc3F)c21` [Example 121], the IC50 (geometric mean) is 0.2 nM.

As to `CC(C)n1cnc2cc(-c3ccc4c(c3)N([C@H]3C[C@@H](N5CC6CCC5CC6)C3)C(=O)C4(C)C)nc(Nc3ccncc3F)c21` [Example 58], the IC50 under setting [1] was 0.7 nM.

`CC(C)n1cnc2cc(-c3ccc4c(c3)N([C@H]3C[C@@H](N5C[C@H]6CC[C@H]6C5)C3)C(=O)C43CCN(C(=O)C(C)(C)CO)CC3)nc(Nc3ccncc3F)c21` [Example 112]: the half-inhibitory concentration (IC50) (geometric mean) is 0.08 nM.

On to `CC(C)n1cnc2cc(-c3ccc4c(c3)N([C@H]3C[C@@H](N5CC(C)(C)C5)C3)C(=O)C4(C)C)nc(Nc3cc(CO)ncc3F)c21` [Example 100], for which the IC50 (geometric mean) amounted to 3.1 nM.

With `CNC(=O)c1cc(Nc2nc(-c3ccc4c(c3)N([C@H]3C[C@@H](N5CCCCC5)C3)C(=O)C4(C)C)cc3ncn(C(C)C)c23)ncc1C` [Example 194, 2-((6-(3,3-dimethyl-2-oxo-1-((1s,3s)-3-(piperidin-1-yl)cyclobutyl)indolin-6-yl)-3-isopropyl-3H-imidazo[4,5-c]pyridin-4-yl)amino)-N,5-dimethylisonicotinamide], the IC50 (geometric mean) amounted to 9.6 nM.

Regarding `CC(C)n1cnc2cc(-c3ccc4c(c3)N([C@H]3C[C@@H](N5CCC(C)(C)C5)C3)C(=O)C43CCN(C(=O)c4ncco4)CC3)nc(Nc3ccncc3F)c21` [Example 159], under “geometric mean”, the IC50 worked out at 0.4 nM.

Take `CC(C)n1cnc2cc(-c3ccc4c(c3)N([C@H]3C[C@@H](N5CCCCC5)C3)C(=O)C43CCN(C(=O)C4(C)CCOCC4)CC3)nc(Nc3ccncc3F)c21` [Example 1, 6-(4-((3-fluoropyridin-4-yl)amino)-3-isopropyl-3H-imidazo[4,5-c]pyridin-6-yl)-1′-(4-methyltetrahydro-2H-pyran-4-carbonyl)-1-((1s,3s)-3-(piperidin-1-yl)cyclobutyl)spiro[indoline-3,4′-piperidin]-2-one]: the IC50 under setting [1] came out at 0.6 nM.

Consider `CC(C)n1cnc2cc(-c3ccc4c(c3)N([C@H]3C[C@@H](N5CCC(C)(C)C5)C3)C(=O)C43CCN(C(=O)c4cnnn4C)CC3)nc(Nc3ccncc3F)c21` [Example 161], for which, where the note is “geometric mean”, the IC50 is 0.4 nM.

For the molecule `CC(C)n1cnc2cc(-c3ccc4c(c3)N([C@H]3C[C@@H](N5CCC(C)(C)C5)C3)C(=O)C43CCN(C(=O)[C@@H]4OCC[C@@H]4C)CC3)nc(Nc3ccncc3F)c21` [Example 19A, 1-((1s,3S)-3-(3,3-dimethylpyrrolidin-1-yl)cyclobutyl)-6-(4-((3-fluoropyridin-4-yl)amino)-3-isopropyl-3H-imidazo[4,5-c]pyridin-6-yl)-1′-((2R,3S)-3-methyltetrahydrofuran-2-carbonyl)spiro[indoline-3,4′-piperidin]-2-one], the IC50 under setting [1] is 0.2 nM.

Regarding `CC(=O)N1CCC2(CC1)C(=O)N([C@H]1C[C@@H](N3CCCC[C@@H]3C)C1)c1cc(-c3cc4ncn(C(C)C)c4c(Nc4ccncc4F)n3)ccc12` [Example 184], where the note is “geometric mean”, the IC50 worked out at 0.7 nM.

As for `CNC(=O)c1ccc(F)c(Nc2nc(-c3ccc4c(c3)N([C@H]3C[C@@H](N5CCCCC5)C3)C(=O)C4(C)C)cc3ncn(C(C)C)c23)n1` [Example 104], the half-maximal inhibitory concentration (IC50) (geometric mean) was found to be 1.4 nM.

With `CC(C)n1cnc2cc(-c3ccc4c(c3)N([C@H]3C[C@@H](N5CCC(C)(C)C5)C3)C(=O)C4(C)C)nc(Nc3ccncc3F)c21` [Example 189], for the setting “geometric mean”, the IC50 was found to be 0.6 nM.

`Cc1cc(Nc2nc(-c3ccc4c(c3)N([C@H]3C[C@@H](N5CCCCC5)C3)C(=O)C4(C)C)cc3ncn(C(C)C)c23)c(F)cn1` [Example 54]: under setting [1], the IC50 turned out to be 1.5 nM.

As for `CC(C)n1cnc2cc(-c3ccc4c(c3)N([C@H]3C[C@@H](N5CCC(C)(C)C5)C3)C(=O)C43CCN(C(=O)[C@H]4CC[C@@H](C)O4)CC3)nc(Nc3ccncc3F)c21` [Example 20A, 1-((1s,3S)-3-(3,3-dimethylpyrrolidin-1-yl)cyclobutyl)-6-(4-((3-fluoropyridin-4-yl)amino)-3-isopropyl-3H-imidazo[4,5-c]pyridin-6-yl)-1′-((2R,5R)-5-methyltetrahydrofuran-2-carbonyl)spiro[indoline-3,4′-piperidin]-2-one], the IC50 under setting [1] stood at 0.1 nM.

Turning to `CC(C)n1cnc2cc(-c3ccc4c(c3)N([C@H]3C[C@@H](N5CCCC5)C3)C(=O)C4(C)C)nc(Nc3ccncc3F)c21` [Example 188], where the note is “geometric mean”, the half-maximal inhibitory concentration (IC50) is 3.2 nM.

Consider `CC(C)n1cnc2cc(-c3ccc4c(c3)N([C@H]3C[C@@H](N5C[C@H]6CC[C@@H]5C6)C3)C(=O)C4(C)C)nc(Nc3ccncc3F)c21` [Example 66], for which, under setting [1], the IC50 worked out at 0.7 nM.

Regarding `CC(=O)N1CCC2(CC1)C(=O)N([C@H]1C[C@@H](N3CCCCCC3)C1)c1cc(-c3cc4ncn(C(C)C)c4c(Nc4ccncc4F)n3)ccc12` [Example 185], under “geometric mean”, the IC50 turned out to be 0.1 nM.

With `CC(=O)N1CCC2(CC1)C(=O)N([C@H]1C[C@@H](N3CCCCC3)C1)c1cc(-c3cc4ncn(C(C)C)c4c(Nc4ccc(F)nc4F)n3)ccc12` [Example 70], the half-inhibitory concentration (IC50) under setting [1] worked out at 0.1 nM.

Take `[2H]C1([2H])N([C@H]2C[C@@H](N3C(=O)C(C)(C)c4ccc(-c5cc6ncn(C(C)C)c6c(Nc6ccncc6F)n5)cc43)C2)C([2H])([2H])C([2H])([2H])C([2H])([2H])C1([2H])[2H]` [Example 63]: the concentration for half-maximal inhibition (IC50) under setting [1] was 0.3 nM.

With `CCC(=O)N1CCC2(CC1)C(=O)N([C@H]1C[C@@H](N3CCCCC3)C1)c1cc(-c3cc4ncn(CC)c4c(Nc4ccncc4F)n3)ccc12` [Example 168], the half-maximal inhibitory concentration (IC50) (geometric mean) worked out at 2.6 nM.

`COCC(C)(C)C(=O)N1CCC2(CC1)C(=O)N([C@H]1C[C@@H](N3CCCCC3)C1)c1cc(-c3cc4ncn(C(C)C)c4c(Nc4ccncc4F)n3)ccc12` [Example 140]: the IC50 (geometric mean) is 0.3 nM.

`CCn1cnc2cc(-c3ccc4c(c3)N([C@H]3C[C@@H](N5CCC(C)(C)C5)C3)C(=O)C43CCN(C4COC4)CC3)nc(Nc3ccncc3F)c21` [Example 87]: the IC50 under setting [1] amounted to 0.7 nM.

With `CC(C)n1cnc2cc(-c3ccc4c(c3)N([C@H]3C[C@@H](N5C[C@@H](C)[C@@H](C)C5)C3)C(=O)C43CCN(C(=O)C4(C)COC4)CC3)nc(Nc3ccncc3F)c21` [Example 8], the IC50 under setting [1] stood at 0.2 nM.

Regarding `CCn1cnc2cc(-c3ccc4c(c3)N([C@H]3C[C@@H](N5CCCCC5)C3)C(=O)C43CCN(C(=O)C(C)C)CC3)nc(Nc3ccncc3F)c21` [Example 148], for the setting “geometric mean”, the IC50 was 1.3 nM.

On to `CC(C)C(=O)N1CCC2(CC1)C(=O)N([C@H]1C[C@@H](N3CCCCC3)C1)c1cc(-c3cc4ncn(C(C)C)c4c(Nc4ccncc4F)n3)ccc12` [Example 171], for which the IC50 (geometric mean) amounted to 0.5 nM.

Regarding `CC(C)n1cnc2cc(-c3ccc4c(c3)N([C@H]3C[C@@H](N5CCCCC5)C3)C(=O)C43CCN(C(=O)C(C)(C)CO)CC3)nc(Nc3ccncc3F)c21` [Example 106, 6-(4-((3-fluoropyridin-4-yl)amino)-3-isopropyl-3H-imidazo[4,5-c]pyridin-6-yl)-1′-(3-hydroxy-2,2-dimethylpropanoyl)-1-((1s,3s)-3-(piperidin-1-yl)cyclobutyl)spiro[indoline-3,4′-piperidin]-2-one], the IC50 (geometric mean) came to 0.3 nM.

Turning to `CC(=O)N1CCC2(CC1)C(=O)N([C@H]1C[C@@H](N3CC4CC4C3)C1)c1cc(-c3cc4ncn(C(C)C)c4c(Nc4ccncc4F)n3)ccc12` (some centres unmarked) [Example 180], where the note is “geometric mean”, the concentration for half-maximal inhibition (IC50) amounted to 1.3 nM.

In the case of `CC(C)n1cnc2cc(-c3ccc4c(c3)N([C@H]3C[C@@H](N5CC6CC(C6)C5)C3)C(=O)C43CCN(C(=O)C4(C)COC4)CC3)nc(Nc3ccncc3F)c21` [Example 7], the concentration for half-maximal inhibition (IC50) under setting [1] came to 0.2 nM.

Turning to `CC[C@H](O)C(=O)N1CCC2(CC1)C(=O)N([C@H]1C[C@@H](N3CCCCC3)C1)c1cc(-c3cc4ncn(C(C)C)c4c(Nc4ccncc4F)n3)ccc12` [Example 115], for the setting “geometric mean”, the 50% inhibitory concentration (IC50) was found to be 0.4 nM.

Values taken from patent publication US11071730B2, “Substituted 6-azabenzimidazole compounds” (Gilead Sciences, Inc., priority 2018, dated 2021).
